Tests used:
[1] = system: cancer cell lines; test: National Cancer Institute (NCI) 60 cell cancer screen, growth inhibition; format: cell-based; conditions: multiple dose study (dose-response); leukemia, non-small cell, colon, CNS, melanoma, ovarian, renal, prostate, breast cancer cell lines (FIGS. 3-11)
Method: (§1) A multiple dose study (dose-response) was then performed using Compound 8 across multiple cancer cell lines. […] A multiple dose study (dose-response) was then performed in PC3 cells using Compound 9. […] (See FIG. 2) The data was generated according to the National Cancer Institute (NCI) 60 cell cancer screen.

[2] = system: prostate cancer PC3 cells; test: NCI 60 cell cancer screen, multiple dose study (dose-response) in PC3 cells; format: cell-based; conditions: FIG. 2
Method: FIG. 2 provides data from a multiple dose study (dose-response) performed in prostate cancer PC3 cells.
as §1

[3] = target: dopamine transporter (DAT) (Homo sapiens, UniProt Q01959); test: CNS receptor testing, affinity at dopamine transporter; format: binding; conditions: for affinity and selectivity for the dopamine transporter (DAT): result in words
Method: The compounds were tested for affinity at various central nervous system receptors.

Chain of dopamine transporter (DAT) (Q01959 whole entry, species assumed): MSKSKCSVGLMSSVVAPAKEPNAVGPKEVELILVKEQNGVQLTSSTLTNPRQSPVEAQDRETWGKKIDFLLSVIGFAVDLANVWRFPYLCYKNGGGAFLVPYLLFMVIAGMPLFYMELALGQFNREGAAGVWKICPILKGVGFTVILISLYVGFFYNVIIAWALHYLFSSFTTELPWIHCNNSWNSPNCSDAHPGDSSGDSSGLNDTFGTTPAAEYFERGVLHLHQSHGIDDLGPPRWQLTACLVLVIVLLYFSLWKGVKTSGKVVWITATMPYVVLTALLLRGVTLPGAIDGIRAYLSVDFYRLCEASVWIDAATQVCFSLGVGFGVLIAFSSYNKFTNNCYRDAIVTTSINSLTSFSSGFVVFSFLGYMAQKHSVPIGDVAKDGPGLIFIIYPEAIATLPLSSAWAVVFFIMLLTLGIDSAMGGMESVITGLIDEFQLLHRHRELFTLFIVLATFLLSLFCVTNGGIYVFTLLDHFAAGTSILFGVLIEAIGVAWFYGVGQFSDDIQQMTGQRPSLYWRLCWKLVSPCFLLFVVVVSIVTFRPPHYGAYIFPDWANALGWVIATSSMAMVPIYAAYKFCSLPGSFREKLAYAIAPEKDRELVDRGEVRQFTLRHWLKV

Structure (SMILES)	growth inhibition across multiple cancer cell lines [1]	growth inhibition of PC3 cells [2]	Ki [3] [nM]	affinity and selectivity for the dopamine transporter (DAT) [3]
CCCCCc1cc(NC(=O)C(Cl)Cl)c2c(c1)OC(C)(CCC=C(C)C)C=C2 (stereo not drawn) [Compound 8]	provided growth inhibition			
CCCCCc1cc(NC(=O)CC(F)(F)F)c2c(c1)OC(C)(CCC=C(C)C)C=C2 (stereo not drawn) [Compound 9]		inhibits the growth		
CCCCCc1cc(NC(=O)C(F)(F)Br)c2c(c1)OC(C)(CCC=C(C)C)C=C2 (stereo not drawn) [Compound 10]			85	good affinity and selectivity
CCCCCc1cc(NC(=O)CCCC)c2c(c1)OC(C)(CCC=C(C)C)C=C2 (stereo not drawn) [Compound 12]			107	good affinity and selectivity
